Reference: PMC10709440, “High-throughput ligand profile characterization in novel cell lines expressing seven heterologous insect olfactory receptors for the detection of volatile plant biomarkers” (Scientific Reports, 2023)
Read-outs that look alike come from different tables or passages of the source.

Columns and labels:
Drosophila OR49b = biological target: T1, Drosophila OR49b (Drosophila melanogaster, UniProt Q9V6H2); experiment: cell-based; conditions: for Average response: OR49b cell line, mean of biological replicates
T1 construct: expressed in transfected cells
T1 sequence (Q9V6H2 1-375): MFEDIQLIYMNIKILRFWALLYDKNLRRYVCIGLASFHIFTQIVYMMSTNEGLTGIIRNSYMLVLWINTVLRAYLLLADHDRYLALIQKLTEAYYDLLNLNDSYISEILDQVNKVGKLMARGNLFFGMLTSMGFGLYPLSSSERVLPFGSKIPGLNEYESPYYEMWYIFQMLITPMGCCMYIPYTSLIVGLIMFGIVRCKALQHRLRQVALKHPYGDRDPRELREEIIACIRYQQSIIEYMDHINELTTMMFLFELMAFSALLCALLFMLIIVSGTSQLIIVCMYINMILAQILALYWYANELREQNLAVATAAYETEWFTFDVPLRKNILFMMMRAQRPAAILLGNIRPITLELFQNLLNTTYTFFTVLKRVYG
T1 sequence (Q9VNB5 1-486 partner): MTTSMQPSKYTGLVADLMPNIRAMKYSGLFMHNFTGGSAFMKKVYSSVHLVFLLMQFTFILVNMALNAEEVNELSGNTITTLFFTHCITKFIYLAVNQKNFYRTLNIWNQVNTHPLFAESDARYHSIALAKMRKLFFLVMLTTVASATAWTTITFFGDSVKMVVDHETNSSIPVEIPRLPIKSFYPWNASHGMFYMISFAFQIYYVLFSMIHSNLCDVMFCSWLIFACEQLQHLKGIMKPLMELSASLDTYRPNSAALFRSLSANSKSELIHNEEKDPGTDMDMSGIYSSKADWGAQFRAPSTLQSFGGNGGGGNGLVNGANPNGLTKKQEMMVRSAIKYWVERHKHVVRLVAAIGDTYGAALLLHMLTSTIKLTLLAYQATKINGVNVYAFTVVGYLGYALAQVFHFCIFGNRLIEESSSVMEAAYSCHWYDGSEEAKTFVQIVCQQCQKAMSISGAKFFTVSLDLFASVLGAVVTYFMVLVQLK
Experimental: (§1) These VUAA1 normalized ∆F values were used to compare the different receptors and ligands.
(§2) The concentration-dependent effect of the reference ligands on their cognate cell lines was examined in more detail. Twelve different ligand concentrations were measured on each cell line in an overall 0.01 μM to 100 μM concentration range with 5 repetitions with three technical replicates each time.
(§3) Twelve thousand to 18,000 cells were plated into each well of a black wall, transparent bottom 384-well microplate (Greiner) 48 h or 72 h before the measurements and were simultaneously treated with 1 μg/mL doxycycline. […] The plate has 24 columns, thus we could record responses in up to eight different cell lines in each plate. On the day of the experiment, the growth medium was replaced with 20 µL assay buffer/well (140 mM NaCl, 5 mM KCl, 2 mM CaCl2, 1 mM MgCl2, 5 mM HEPES-Na, 20 mM glucose, pH 7.3, 340 mOsm). […] Baseline fluorescence (F0) was recorded for 5 s, after which 7 µL VOC buffer (140 mM NaCl, 5 mM KCl, 2 mM CaCl2, 1 mM MgCl2, 5 mM HEPES-Na, 31 mM glucose, 0.1% DMSO, pH 7.3, 340 mOsm) was injected into each well in one row and the fluorescence response was recorded for an additional 30 s, at a rate of one read/sec. VOC solutions (VOC buffer with 4× concentration of the final measured VOC concentration, 9 µL/well was injected) were measured on the same wells in a second round with the same protocol. Each individual concentration of a specific VOC sample was recorded in three wells for the same cell line on the same microplate. The raw data were exported in xls file format, F0 and FMAX values, and the fluorescence intensity changes (∆F) were calculated in Excel (Microsoft) (Supplementary file Data summary.xlsx) using the following equation: ΔF=FMAX-F0/F0 (see also Fig. 1C). On each plate, we recorded the response of each cell line to 50 µM VUAA1. The average of these ∆F values of each cell line were used to calculate the VUAA1-normalized values for the rest of the plate, by dividing VOC response ∆F values by the average VUAA1 response ∆F value of the corresponding OR cell line. Each VOC-OR combination was measured three times as technical replicates. […] The average of these replicates were used as one ∆F and VUAA1-normalized ∆F in the following analysis.
(§4) In the next rows we tested the reference VOCs (or other VOCs known to activate the corresponding cell lines), in order to test if all cell lines are responsive. The remaining rows were used to test VOCs with unknown effect.
(§5) The recorded FMAX, F0, ∆F, VUAA1-normalized ∆F values, as well as the OR name, the name of the tested sample, and the final concentration for each well were copied into supplementary file Data summary.xlsx, that was used to summarize all the plates recorded. Here, the averages of the measurements were calculated for each receptor-VOC-concentration combination.

Drosophila OR71a = biological target: T2, Drosophila OR71a (Drosophila melanogaster, UniProt Q9VUK5); experiment: Calcium ion fluorescence (GCaMP6) assay, OR71a stable HEK293 cell line; type: cell-based; set-up: key to DF norm AVERAGE OR71a: VOC ∆F divided by the plate's mean ∆F response to 50 µM VUAA1; conditions: for activation at 1 µM / activation at 10 µM / activation at 100 µM: HEK293, read-out: OR71a response (VUAA1-normalized response); for Average response: OR71a cell line, VUAA1-normalized response, mean of biological replicates; for OR71a Average response (VUAA1-normalized): 50 μM VUAA1 = 1
T2 construct: expressed in transfected cells
T2 sequence (Q9VUK5 1-378): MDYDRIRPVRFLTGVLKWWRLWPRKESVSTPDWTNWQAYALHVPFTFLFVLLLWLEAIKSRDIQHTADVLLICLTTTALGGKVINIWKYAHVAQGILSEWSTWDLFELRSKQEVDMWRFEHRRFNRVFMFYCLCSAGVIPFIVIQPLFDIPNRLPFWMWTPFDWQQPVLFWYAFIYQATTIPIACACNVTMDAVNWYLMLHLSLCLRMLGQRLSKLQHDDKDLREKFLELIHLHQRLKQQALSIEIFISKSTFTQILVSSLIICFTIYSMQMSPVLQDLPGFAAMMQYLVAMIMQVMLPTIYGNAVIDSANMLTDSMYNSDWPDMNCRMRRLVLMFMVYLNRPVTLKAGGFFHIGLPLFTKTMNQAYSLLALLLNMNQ
T2 sequence (Q9VNB5 1-486 partner): T1 sequence (Q9VNB5 1-486 partner)
Experimental: as §1, §2, §3, §4, §5

[1] = HEK293, VOC concentration 1 μM, read-out: OR49b response (VUAA1-normalized response)
[2] = HEK293, VOC concentration 10 μM, read-out: OR49b response (VUAA1-normalized response)
[3] = HEK293, VOC concentration 100 μM, read-out: OR49b response (VUAA1-normalized response)
[4] = concentration 1, normalized fluorescence change, values below 0.05 threshold given as 0
[5] = concentration 10, normalized fluorescence change, values below 0.05 threshold given as 0
[6] = concentration 100, normalized fluorescence change, values below 0.05 threshold given as 0
[7] = HEK293, read-out: OR49b Average response (VUAA1-normalized)
[8] = HEK293, read-out: OR49b response (VUAA1-normalized response)
[9] = ligand concentration 1 (unit not given), threshold 0.05, below shown as 0
[10] = ligand concentration 10 (unit not given), threshold 0.05, below shown as 0
[11] = ligand concentration 100 (unit not given), threshold 0.05, below shown as 0
[12] = HEK293, 1 μM VOC, 50 μM VUAA1 = 1, read-out: OR49b Average response (VUAA1-normalized)
[13] = HEK293, 10 μM VOC, 50 μM VUAA1 = 1, read-out: OR49b Average response (VUAA1-normalized)
[14] = HEK293, 100 μM VOC, 50 μM VUAA1 = 1, read-out: OR49b Average response (VUAA1-normalized)

| Compound | activation at 1 µM (Drosophila OR49b; [1]) [%] | activation at 10 µM (Drosophila OR49b; [2]) [%] | activation at 100 µM (Drosophila OR49b; [3]) [%] | Average response (Drosophila OR49b; odorant cc. 1 µM) | Average response (Drosophila OR49b; odorant cc. 10 µM) | Average response (Drosophila OR49b; odorant cc. 100 µM) | activation at 1 µM (Drosophila OR71a) [%] | activation at 10 µM (Drosophila OR71a) [%] | activation at 100 µM (Drosophila OR71a) [%] | Average response (Drosophila OR71a; cc. 1 µM) | Average response (Drosophila OR71a; cc. 10 µM) | Average response (Drosophila OR71a; cc. 100 µM) | DF norm AVERAGE OR71a (Drosophila OR71a; [4]) | DF norm AVERAGE OR71a (Drosophila OR71a; [5]) | DF norm AVERAGE OR71a (Drosophila OR71a; [6]) | DF norm AVERAGE OR49b (Drosophila OR49b; [9]) | DF norm AVERAGE OR49b (Drosophila OR49b; [10]) | DF norm AVERAGE OR49b (Drosophila OR49b; [11]) | DF norm AVERAGE OR71a (Drosophila OR71a; [9]) | DF norm AVERAGE OR71a (Drosophila OR71a; [10]) | other results |
| --- | --- | --- | --- | --- | --- | --- | --- | --- | --- | --- | --- | --- | --- | --- | --- | --- | --- | --- | --- | --- | --- |
| CCCCCO [1-pentanol] | 0 | 0 | 0 | 0.00 | 0.00 | 0.0167 | 0 | 0 | 0 | 0.0261 | 0.00 | 0.00 | 0 | 0 | 0 | – | – | – | – | – | DF norm AVERAGE OR49b (Drosophila OR49b): 0 |
| CCc1ccccc1 [ethylbenzene] | – | – | – | 0.05 | 0.09 | 0.33 | 0 | 0 | 0 | 0.023 | 0.0127 | 0.0277 | – | – | – | 0.05039 | 0.08967 | 0.3273 | 0 | 0 | activation at 1 µM (Drosophila OR49b; [7]): 5%; activation at 10 µM (Drosophila OR49b; [7]): 9%; activation at 100 µM (Drosophila OR49b; [7]): 33%; activation at 1 µM (Drosophila OR49b; [8]): 5%; activation at 10 µM (Drosophila OR49b; [8]): 9%; activation at 100 µM (Drosophila OR49b; [8]): 33%; DF norm AVERAGE OR71a (Drosophila OR71a; [11]): 0 |
| CCCC(=O)OCC [ethyl butyrate] | 0 | 0 | 0 | 0.00 | 0.00 | 0.00 | 0 | 0 | 0 | 0.00 | 0.00 | 0.00 | – | – | – | 0 | 0 | 0 | 0 | 0 | DF norm AVERAGE OR71a (Drosophila OR71a; [11]): 0 |
| CCCCCCCO [1-heptanol] | 0 | 0 | 6 | 0.00 | 0.00 | 0.06 | 0 | 0 | 0 | 0.00 | 0.00 | 0.00 | 0 | 0 | 0 | – | – | – | – | – | – |
| Cc1cccc(O)c1 [3-methylphenol] | 0 | 13 | 43 | 0.00 | 0.13 | 0.43 | 0 | 0 | 0 | 0.03 | 0.0152 | 0.0133 | 0 | 0 | 0 | – | – | – | – | – | activation at 1 µM (Drosophila OR49b; [12]): 0%; activation at 10 µM (Drosophila OR49b; [13]): 13%; activation at 100 µM (Drosophila OR49b; [14]): 43% |
| CCCCCCCCC(CO)CCCCCC (stereo not shown) [2-hexyl-1-decanol] | 0 | 0 | 8.56 | 0.00 | 0.00 | 0.0856 | 0 | 0 | 0 | 0.00 | 0.00 | 0.00 | 0 | 0 | 0 | – | – | – | – | – | – |
| CC(=O)c1ccccc1 [acetophenone] | 0 | 0 | 13 | 0.00 | 0.00 | 0.13 | 0 | 0 | 0 | 0.00 | 0.00 | 0.00 | – | – | – | 0 | 0 | 0.1277 | 0 | 0 | activation at 1 µM (Drosophila OR49b; [12]): 0%; activation at 10 µM (Drosophila OR49b; [13]): 0%; activation at 100 µM (Drosophila OR49b; [14]): 13%; DF norm AVERAGE OR71a (Drosophila OR71a; [11]): 0 |
| CCCCCC(C)O (stereo not shown) [2-heptanol] | 0 | 0 | 6.51 | 0.00 | 0.00 | 0.0651 | 0 | 0 | 16 | 0.00 | 0.04 | 0.16 | 0 | 0 | 0.1631 | – | – | – | – | – | OR71a Average response (VUAA1-normalized) (Drosophila OR71a; 1 μM VOC): 0.00; OR71a Average response (VUAA1-normalized) (Drosophila OR71a; 10 μM VOC): 0.04; OR71a Average response (VUAA1-normalized) (Drosophila OR71a; 100 μM VOC): 0.16 |
